In ChEMBL document CHEMBL1158695, “Cytotoxic sterol derivatives from a marine sponge Homaxinella sp” (2005):
In brackets after ≈: the same amount, converted by molar mass.

Key:
Settings in all cases: read-out: ED50 (the source's name)
XF498 = experiment: Cytotoxicity against human XF498 cells; format: functional
SK-MEL-2 = experiment: Cytotoxicity against human SK-MEL-2 cells; format: functional
[1] = tested on: HCT-15 (human colon cancer); experiment: Cytotoxicity against human HCT15 cells
SK-OV-3 = experiment: Cytotoxicity against human SKOV3 cells; format: functional
A549 = experiment: Cytotoxicity against human A549 cells; format: functional

SMILES	EC50 (XF498) [µg/mL]	EC50 (SK-MEL-2) [µg/mL]	EC50 [1] [µg/mL]	EC50 (SK-OV-3) [µg/mL]	EC50 (A549) [µg/mL]
CC(C)C/C=C/[C@@H](C)[C@H]1CCC2C3=CC(=O)O[C@@]3(O)CC[C@@]21C (stereo not given in full) [DEMETHYLINCISTEROL A1]	1.08 (≈ 3.39 µM)	1.94 (≈ 6.09 µM)	1.42 (≈ 4.46 µM)	1.7 (≈ 5.34 µM)	2.79 (≈ 8.76 µM)
CC(C)[C@H](C)/C=C/[C@@H](C)[C@H]1CCC2C3=CC(=O)O[C@@]3(O)CC[C@@]21C (stereo not given in full) [DEMETHYLINCISTEROL A2]	0.93 (≈ 2.8 µM)	1.21 (≈ 3.64 µM)	1.28 (≈ 3.85 µM)	1.49 (≈ 4.48 µM)	1.51 (≈ 4.54 µM)
CC(C)[C@@H](C)/C=C/[C@@H](C)[C@H]1CCC2C3=CC(=O)O[C@@]3(O)CC[C@@]21C (stereo not given in full) [DEMETHYLINCISTEROL A3]	1.14 (≈ 3.43 µM)	1.3 (≈ 3.91 µM)	1.39 (≈ 4.18 µM)	1.97 (≈ 5.93 µM)	1.62 (≈ 4.87 µM)
CC[C@@H](/C=C/[C@@H](C)[C@H]1CCC2C3=CC(=O)O[C@@]3(O)CC[C@@]21C)C(C)C (stereo not given in full) [DEMETHYLINCISTEROL A4]	0.68 (≈ 1.96 µM)	0.55 (≈ 1.59 µM)	0.65 (≈ 1.88 µM)	0.79 (≈ 2.28 µM)	0.92 (≈ 2.66 µM)
COc1cccc2c1C(=O)c1c(O)c3c(c(O)c1C2=O)C[C@@](O)(C(=O)CO)C[C@@H]3O[C@H]1C[C@H](N)[C@H](O)[C@H](C)O1 [DOXORUBICIN]	0.07 (≈ 0.129 µM)	0.04 (≈ 0.0736 µM)	0.17 (≈ 0.313 µM)	0.09 (≈ 0.166 µM)	0.11 (≈ 0.202 µM)
CCCCO[C@@H]1C=C2[C@@H]3CC[C@H]([C@H](C)/C=C/CC(C)C)[C@@]3(C)CC[C@@H]2[C@@]2(C)CC[C@H](O)C[C@]12O [HOMAXISTEROL A1]	6.33 (≈ 13.4 µM)	6.88 (≈ 14.6 µM)	7.62 (≈ 16.1 µM)	7.57 (≈ 16 µM)	8.54 (≈ 18.1 µM)
CCCCO[C@@H]1C=C2[C@@H]3CC[C@H]([C@H](C)/C=C/[C@@H](C)C(C)C)[C@@]3(C)CC[C@@H]2[C@@]2(C)CC[C@H](O)C[C@]12O [HOMAXISTEROL A2]	4.17 (≈ 8.57 µM)	3.69 (≈ 7.58 µM)	4.4 (≈ 9.04 µM)	4.43 (≈ 9.1 µM)	6.23 (≈ 12.8 µM)
CCCCO[C@@H]1C=C2[C@@H]3CC[C@H]([C@H](C)/C=C/[C@H](C)C(C)C)[C@@]3(C)CC[C@@H]2[C@@]2(C)CC[C@H](O)C[C@]12O [HOMAXISTEROL A3]	5.03 (≈ 10.3 µM)	6.1 (≈ 12.5 µM)	7.1 (≈ 14.6 µM)	7.85 (≈ 16.1 µM)	8.42 (≈ 17.3 µM)
CCCCO[C@@H]1C=C2[C@@H]3CC[C@H]([C@H](C)/C=C/[C@H](CC)C(C)C)[C@@]3(C)CC[C@@H]2[C@@]2(C)CC[C@H](O)C[C@]12O [HOMAXISTEROL A4]	34.1 (≈ 68.1 µM)	> 30	> 30	> 30	> 30
